Patent US11389415B2, “Methods of regulating cannabinoid receptor activity-related disorders and diseases” (The United States of America as represented by the …, priority 2012, dated 2022)
“Also recorded” adds a separate entry of the source.

Assays:
[1] = test system: Sox4, Olig1, Galnt3, Cdkn3, Ccna2, Bub1b mRNA; experiment: qRT-PCR of selected genes in C6 xenograft tumors; type: in vivo, mouse; conditions: MNF-treated mice
Experimental: Total RNA extraction, cDNA synthesis and qRT-PCR analysis. Total RNA (including the DNase treatment step) was isolated from frozen tumor tissues using the RNeasy mini kit (Qiagen, Valencia, Calif.). RNA concentration and quality was measured using the NanoDrop spectrophotometer (NanoDrop Technologies, Wilmington, Del.). Subsequently, 2 μg total RNA was reverse-transcribed to cDNA using the qSCRIPT™ cDNA SuperMix (Quanta Biosciences, Gaithersburg, Md.). Quantitative real-time PCR (qRT-PCR) reactions were performed to validate the expression of 6 genes that were selected from the microarray analysis. The reactions were carried out with SYBR® Green PCR master mix on an ABI Prism 7300 sequence detection system (Applied Biosystems) using commercially available target probes for Sox4, Olig1, Galnt3, Cdkn3, Ccna2, and Bub1b (PrimeTime qPCR Assays and Primers, IDT DNA Technologies, Coralville, Iowa). The data was analyzed using the 2-ΔΔCt method with Gapdh and vehicle-treated tumors as internal controls. Controls consisting of reaction mixture without cDNA were negative in all runs.

HepG2 and PANC-1 cells = experiment: Cell morphology and EGFR expression in HepG2 and PANC-1 cells; type: cell-based, human
Experimental: FIGS. 26A-26C show MNF interferes with inducible changes in cell morphology and expression of EGFR. […] White arrows show individual cells with filopodia. FIG. 26C, Cell lysates were prepared from similar studies and immunoblotted for EGFR. The membranes were reprobed for Hsp90, which served as a loading control.
(§1) Western blot analysis. For detection of intracellular signaling proteins, cells were lysed in radioimmunoprecipitation buffer containing EGTA and EDTA (Boston BioProducts, Ashland, Mass.). The lysis buffer contained a protease inhibitor cocktail (Sigma-Aldrich) and phosphatase inhibitor cocktail (Calbiochem, San Diego, Calif.). Equivalent amount of proteins (14 and 54 μg/well for PANC-1 and HepG2 cells, respectively) were separated on 4 to 12% precast gels (Invitrogen, Carlsbad, Calif.) using SDS-polyacrylamide gel electrophoresis under reducing conditions and then electrophoretically transferred onto polyvinylidene fluoride membrane (Invitrogen). Western blots were performed according to standard methods, which involved blocking in 5% non-fat milk and incubated with the antibody of interest, followed by incubation with a secondary antibody conjugated with the enzyme horseradish perodixase. The detection of immunoreactive bands was performed by chemiluminescence using the ECL Plus Western Blotting Detection System (GE Healthcare, Piscataway, N.J.). The quantification of bands was done by volume densitometry by using ImageJ software. The rabbit polyclonal antibodies against EGFR were obtained from Cell Signaling Technology, Inc. (Beverly, Mass.) and the monoclonal anti-Hsp90 was purchased from Santa Cruz Biotechnology, Inc. (Santa Cruz, Calif.).

PANC-1 cells = experiment: Scratch wound-healing assay, PANC-1 cells; type: cell-based, human; conditions: PANC-1, 1 μM
Experimental: (§2) Scratch assays. These assays were carried out essentially as described previously (Fiori et al., Endocrinology 150: 2551-2560, 2009). In brief, cells were seeded in 12-well nontreated polystyrene cell culture plates with flat bottom (Greiner Bio-One, Monroe, N.C.). Once the cells became confluent, a scratch wound was made with a pipette tip and pictured immediately (time 0). […] Cell migration was examined at 12, 24, 36, 48 hours and 12, 18, 24, 48 hours after scratch for the HepG2 and PANC-1 cells, respectively. Images of the same field were taken every 3 hours to determine the rate of cell migration. Images were captured on an Axiovert 200 inverted microscope (Carl Zeiss, Thornwood, N.Y.) mounted with an AxioCam HRc digital camera (Carl Zeiss) and the measurement of scratch area was performed with ImageJ 1.46s software (National Institutes of Health, Bethesda, Md.). Each study was performed in duplicate dishes and repeated at least twice.

ERK1/2 = ERK1/2 phosphorylation (GPR55 downstream signaling) in HepG2 cells; type: cell-based, human
Experimental: as §1
Effect of MNF on O-1602-mediated increase in cell signaling. Serum-starved cells were pretreated in the absence or presence of 1 μM MNF for 10 minutes followed by a 10 minute incubation with 0, 2.5 and 10 μM O-1602 or 10% FBS, after which the levels of total ERK2 and phosphorylated forms of ERK1/2 (pErk1/2, Thr202/Tyr204), were determined by Western blotting technique. All primary antibodies were purchased from Cell Signaling Technology and used at a dilution recommended by the manufacturer.

HepG2 cells = experiment: Scratch wound-healing assay, HepG2 cells; type: cell-based, human; conditions: HepG2, 1 μM
Experimental: as §2

[2] = Effect on central nervous system functions; type: in vivo; conditions: as compared to tetrahydrocannabinol
Experimental: Additional studies were performed which further evaluated the effect of MNF on central nervous system functions.

rat C6 glioma xenograft = experiment: C6 tumor xenograft in mice, tumor growth; type: in vivo, mouse
Experimental: C6 tumor xenograft in mice. In order to assess the ability of MNF to induce regression of tumor growth in vivo, rat C6 glioma cells were trypsin-collected at confluency and were used to generate tumor xenografts. Athymic female nude mice (SWISS nu+/nu+) were obtained from Charles Rivers (L'Arbresle, France) and maintained under pathogen-free conditions with a 12 hours light/12 hours dark cycle. Animals were fed ad libitum with normal chow (supplier). Athymic nude mice were inoculated subcutaneously with […] containing 0.5×10^6 C6 glioma cells in the left flank and then were randomly divided into two groups of 10 animals each. Starting 3 days after cell inoculation, mice received daily intraperitoneal injection (10 μl·g-1 body weight) of vehicle or MNF (2 mg·kg-1) in 100 μM ascorbic acid in saline (vehicle) five days a week for 19 days. Animal survival was monitored daily, and tumor size was determined with the use of a caliper to measure the length (a) and width (b) and estimated as 4/3π×rl2×r2, where rl is the smaller and r 2 the larger radius. […] The mice were euthanized by cervical […], and tumor masses were removed, weighed and washed with cold PBS before being snap-frozen in liquid nitrogen. A second set of studies with 8-9 animals in both groups was repeated.

Q: Which results are given for `COc1ccc(C[C@@H](C)NC[C@H](O)c2cc(O)cc(O)c2)c2ccccc12` [(R,R′)-MNF, (R,R′)-4′-methoxy-1-naphthylfenoterol]?
A: mRNA expression by quantitative RT-PCR compared to control [1]: decreased the expression of Bub1b, Cdkn3 Ccna2, Olig1, Sox4, and Galnt3; effect on O-1602-induced EGFR levels (HepG2 and PANC-1 cells; 1 μM pretreatment): MNF blocked this effect; effect on change in morphology induced by AM251 and O-1602 (HepG2 and PANC-1 cells; 1 μM pretreatment 30 minutes, agonists 5 μM 16 hours): rendered the cells refractory to the change in morphology induced by AM251 and O-1602; cell motility, compound alone (PANC-1 cells): did not alter the constitutive rate of gap filling; effect on AM251-induced motility (PANC-1 cells; AM251 1 μM): produced significant decrease in AM251-induced motility of PANC-1 cells; effect on wound closure evoked by O-1602 (PANC-1 cells; O-1602 1 μM): inhibit the wound closure evoked by O-1602 in PANC-1 cells; effect on O-1602-mediated ERK phosphorylation (ERK1/2; HepG2, 1 μM pretreatment 10 minutes): abrogated O-1602 responsiveness; effect on serum-induced ERK phosphorylation (ERK1/2; HepG2, 1 μM pretreatment, 10% FBS): potently inhibited serum-induced ERK phosphorylation in both cell lines; cell motility, compound alone (HepG2 cells): had no effect on the motility of HepG2 cells; effect on AM251-mediated increase in cell motility (HepG2 cells; AM251 1 μM): significant inhibitory effect toward AM251-mediated increase in cell motility; effect on wound closure evoked by O-1602 (HepG2 cells; O-1602 1 μM): absent in HepG2 cells; effects on the central nervous system [2]: not have any significant negative effects on the central nervous system; average AUC±SEM (tumor volume over time, FIG. 19B) (rat C6 glioma xenograft; C6 tumor-bearing female nude mice, 2 mg/kg, five days a week for 19 days, n=19 (vehicle 5450±518)): 3217±265; tumor volume compared with vehicle-treated group (rat C6 glioma xenograft; C6 xenograft in nude mice, 2 mg/kg intraperitoneal): Significant reduction in mean tumor volumes; also recorded: Significant reduction in tumor volume
